Experimental data published in publication PMC12114619, “Nifuroxazide and 4-Hydroxybenzhydrazone Derivatives as New Antiparasitic (Trypanosoma cruzi and Leishmania mexicana) and Anti-Mycobacterium tuberculosis Agents” (Pharmaceutics, 2025).
Converted amounts (≈) assume the structure as drawn.

Assays:
[1] = system: amastigotes of the L. major IR-173 strain; parameters: method as in PMID 35732232; conditions: read-out: IC50 against amastigotes of L. major IR-173; cited from earlier work
[2] = system: intracellular amastigotes of the L. donovani 9515 strain; parameters: method as in PMID 35732232; conditions: read-out: IC50 against intracellular amastigotes of L. donovani 9515; cited from earlier work
[3] = system: T. cruzi NINOA (MHOM/MX/1994/NINOA) strain epimastigotes; experiment: Trypanocidal activity, T. cruzi epimastigotes, NINOA strain (resazurin); format: cell-based, Trypanosoma cruzi; conditions: 48 h
[4] = system: T. cruzi strain A1 epimastigotes; experiment: Trypanocidal activity, T. cruzi epimastigotes, A1 strain (resazurin); format: cell-based, Trypanosoma cruzi; conditions: 48 h
[5] = system: L. mexicana MNYC/BZ/62/M379 promastigotes; experiment: Leishmanicidal activity, L. mexicana promastigotes, M379 strain (MTT); format: cell-based, Leishmania mexicana; conditions: 48 h
Experimental: (§1) For leishmanicidal assays, the reference strain (MNYC/BZ/62/M379) and the isolate (MHOM/MX/2017/UABJO17FCQEPS) of L. mexicana were used. Promastigotes were cultured in RPMI 1640 medium supplemented with 10% FBS, 100 U/mL penicillin-100 […] streptomycin, and glutamine (2 mM). 100 µL parasites (5 × 10^5/mL) were added in a 96-well plate, and 100 µL of appropriate concentrations (0.78 to 200 µM) of each sample dissolved in DMSO and incubated for 48 h at 26 °C. Wells containing promastigotes with DMSO 0.2% were used as a negative control, and the reference drug glucantime was included as the positive control. The 3-(4,5-Dimethylthiazol-2-yl)-2,5-diphenyltetrazolium bromide (MTT) was used to measure metabolic activity. The IC50 values were calculated with the probit statistical tool. All samples were evaluated in triplicate in three independent experiments.

[6] = system: L. mexicana MHOM/MX/2017/UABJO17FCQEPS promastigotes; experiment: Leishmanicidal activity, L. mexicana promastigotes, FCQEPS isolate (MTT); format: cell-based, Leishmania mexicana; conditions: 48 h, FCQEPS strain
Experimental: as §1

[7] = system: M. tuberculosis H37Rv (ATCC 27294); experiment: Anti-Mycobacterium activity, microplate Alamar Blue Assay (MABA); format: cell-based, Mycobacterium tuberculosis; conditions: H37Rv strain, minimum concentration achieving 90% inhibition; for MIC: Mycobacterium tuberculosis
Experimental: The reference strain H37Rv (ATCC 27294) of M. tuberculosis was utilized to assess anti-M. tuberculosis activity using the microplate Alamar Blue Assay (MABA), as previously reported. Samples underwent evaluation in triplicate independent experiments. Isoniazid, rifampicin, moxifloxacin, and linezolid were included as reference drugs, and the minimum drug concentration that achieved 90% inhibition was recorded as the minimum inhibitory concentration (MIC).

[8] = Cytotoxicity on macrophages (MTT); format: cell-based, mouse; conditions: mouse, Cytotoxicity (CC50) Macrophages J774.2
Experimental: (§2) Cytotoxicity was assessed on J774.2 mouse macrophage cells (ATCC® TIB-67, ATCC, Manassas, VA, USA). Cells were cultured in RPMI medium supplemented with 10% SFB, 100 U µg/mL penicillin-100 mg/mL streptomycin, and glutamine (2 mM) at 37 °C and in a 5% CO2 atmosphere. A known concentration of cells (1 × 10^6/mL) was incubated with the compounds at different concentrations (0.78 to 200 µM) for 48 h at 37 °C in a CO2 atmosphere (5%). Wells containing cells treated with 0.2% DMSO were used as a negative control. MTT was employed to evaluate the metabolic activity. Next, the cell viability was calculated (%), and the cytotoxic concentration (CC50) was determined with probit analysis. All samples were evaluated in triplicate in three independent experiments.

[9] = system: J774.2 mouse macrophage cells; experiment: Cytotoxicity on macrophages (MTT); format: cell-based
Experimental: as §2

SMILES | IC50 ([3]; Trypanosoma cruzi) [µM] | IC50 ([4]; Trypanosoma cruzi) [µM] | IC50 [5] [µM] | IC50 ([5]; Leishmania mexicana) [µM] | IC50 ([6]; Leishmania mexicana) [µM] | MIC [7] [µg/mL] | CC50 at 48 h [8] [µM] | further results
CC(C)(C)c1ccc(COc2ccc(C(=O)N/N=C/c3ccc([N+](=O)[O-])o3)cc2)cc1 [Compound 2d] |  |  |  |  |  |  |  | IC50 [1]: 0.19 µM
O=C(N/N=C/c1ccc([N+](=O)[O-])o1)c1ccc(OS(=O)(=O)c2cccnc2)cc1 [Compound 1l] |  |  |  |  |  |  |  | IC50 [2]: 3.26 µM; IC50 [1]: 1.26 µM
O=C(N/N=C/c1ccc([N+](=O)[O-])cc1)c1ccc(O)cc1 [Nfz-18] | 44.5 | > 100 | > 200 | > 100 | 57.8 ± 2.6 | 186 (≈ 653 µM) | 2.45 ± 2.9 | IC50 [3]: 44.6 ± 6.3 µM; Cytotoxicity (CC50) Macrophages J774.2 [9]: most toxic
CNC[C@H](O)[C@@H](O)[C@H](O)[C@H](O)CO.[O]=[Sb](=[O])[OH] [Glucantime, reference compound] |  |  | 134 ± 3.1 |  |  |  |  | IC50 ([5]; listed as glucantime): 134 µM; IC50 [6]: 125 ± 1.6 µM; IC50 ([6]; listed as glucantime): > 120 µM; CC50 ([9]; J774.2 macrophages, 48 h, MTT): > 200 µM
COC(=O)c1ccc(/C=N/NC(=O)c2ccc(O)cc2)cc1 [Nfz-25] | > 100 | > 100 |  | 32.5 ± 6.1 | > 200 | < 50 | > 100 | IC50 T. cruzi NINOA [3]: no activity; IC50 T. cruzi A1 [4]: inactive; MABA MIC [7]: 45.9 µg/mL
O=C(N/N=C/c1ccc(-c2ccccc2)cc1)c1ccc(O)cc1 [Nfz-22] | 6.8 | > 100 |  | > 200 | 133 ± 1.4 | > 100 | 43.5 ± 2.5 | IC50 [3]: 6.87 ± 1.2 µM
COc1cc(/C=N/NC(=O)c2ccc(O)cc2)cc(OC)c1OC [Nfz-14] | 28 ± 1.9 | 29.2 |  | > 200 | 10.2 | > 200 | > 100 | IC50 [4]: 29.2 ± 4.4 µM; IC50 [6]: 10.3 ± 0.8 µM
Cn1cccc1/C=N/NC(=O)c1ccc(O)cc1 [Nfz-5] | > 100 | > 100 | 5.25 ± 5.8 | 5.2 | > 200 | > 100 | 21.9 ± 4.4 | IC50 T. cruzi NINOA [3]: inactivity; IC50 [4]: 78.5 ± 4.7 µM
